Reference: patent US10314816B2, “Antimicrobial compounds, compositions and methods of use thereof” (Wisconsin Alumni Research Foundation, priority 2012, dated 2019)

What was measured:
[1] = test system: C. crescentus cells; assay: Cell lysis observed by phase contrast microscopy; assay type: cell-based, Caulobacter crescentus
Method: The lysed cells appear fainter in phase contrast images, compared to un-lysed cells (e.g., a cell in the white circle).
At high concentrations of DCAP (≥75 μM), cell lysis within minutes after treatment was observed (FIG. 4).

[2] = test system: E. coli BW25113 ΔtolC; assay: MIC of bacterial growth, macrodilution (Table 2); assay type: cell-based, Escherichia coli
Method: (§1) Bacterial strains and growth conditions. Luria-Bertani (LB) media (10 g/L tryptone, 10 g/L NaCl, 5 g/L yeast extract, pH 7.2) was used to grow B. subtilis 168, S. aureus FRI100, and P. aeruginosa K1115 strains. For P. aeruginosa PAO1 and K1119 strains and two E. coli BW25113 strains, M8 minimal media (241 mg/L MgSO4, 4 mg/L glucose, 5 mg/L casamino acids, 12.8 g/L Na2HPO4.7H2O, 3 g/L KH2PO4, and 0.5 g/L NaCl) was used. PYE media (2 g/L peptone, 1 g/L yeast extract, 0.8 mM MgSO4, and 0.5 mM CaCl2) was used for culturing C. crescentus cells at 30° C. All cultures were grown at 37° C., except for C. crescentus (30° C.). All cultures were grown while shaking at 200 rpm.
(§2) Determination of the minimum inhibitory concentration (MIC) of bacterial growth. The MIC of various organisms in liquid media was determined using the macrodilution method according to the NCCLS guidelines. For the starting inoculum, cultures were diluted to contain approximately 5×10^5 cells/mL in growth media. To create a two-fold dilution series for the macrodilution technique, each compound was added to the first culture tube (4 mL total volume) at the highest concentration. 2 mL of this culture was diluted into an equal volume of inoculated media (a two-fold dilution). The final volume for each culture was 2 mL.

[3] = test system: E. coli BW25113 ΔtolC; assay: MIC of DCAP analogs, LB media, macrodilution (CLSI); assay type: cell-based; conditions: Escherichia coli
Method: Luria-Bertani (LB) media (10 g/L tryptone, 10 g/L NaCl, 5 g/L yeast extract, pH 7.0) was used to grow all the strains represented in Tables 5 and 6. All the cultures were grown at 37° C. All the E. coli strains were grown while shaking at 200 rpm and the clinical pathogens were statically incubated. […]

[4] = test system: P. aeruginosa K1119; assay: MIC of bacterial growth, macrodilution (Table 2); assay type: cell-based; conditions: Pseudomonas aeruginosa
Method: as §1, §2

[5] = test system: E. coli BW25113; assay: MIC of bacterial growth, macrodilution (Table 2); assay type: cell-based; conditions: Escherichia coli
Method: as §1, §2

[6] = test system: P. aeruginosa PAO1; assay: MIC of bacterial growth, macrodilution (Table 2); assay type: cell-based; conditions: Pseudomonas aeruginosa
Method: as §1, §2

[7] = test system: P. aeruginosa K1115; assay: MIC of bacterial growth, macrodilution (Table 2); assay type: cell-based; conditions: Pseudomonas aeruginosa
Method: as §1, §2

[8] = test system: MipZ-YFP; assay: Effects of compounds on MipZ localization; assay type: cell-based, Caulobacter crescentus; conditions: DCAP 20 μM, 20 min after treating C. crescentus cells; p=0.0002 vs DMSO
Method: Effects of compounds on MipZ localization. A strain of C. crescentus in which MipZ was translationally fused to yellow fluorescent protein (YFP) was used to determine the effect of DCAP on MipZ localization. For experiments with C. crescentus expressing MipZ-YFP, overnight cultures were diluted 10-fold and incubated at least 1 hour prior to treatment with compounds. After adding compounds, cells were incubated at 200 rpm and 30° C. for 20 minutes. Cells were imaged as described above. Following cell segmentation and fluorescence signal calculation in MicrobeTracker, a separate MATLAB script was used to detect signal peaks within an individual cell. The number of total peaks and peak locations were calculated (i.e., poles or mid-cell) for each cell. Poles were defined as 1-25% and 75-100% along the normalized cell length (1-100%). […] After this classification, a contingency table was created with the total number of cells analyzed, and the number of cells with the ‘wildtype’ localization. […]
As a positive control, carbonyl cyanide m-chlorophenyl hydrazone (CCCP) was used. In FIG. 3, ‘wildtype’ (WT) localization was defined as 1) unipolar (a single peak of fluorescence signal at a pole) and 2) bipolar (two peaks at poles). […] At least 69 cells were analyzed for each sample. […]

[9] = test system: M. morganii; assay: MIC of bacterial growth (Table 2); assay type: cell-based; conditions: Morganella morganii; M. morganii clinical isolate (Table 2)
Method: as §2

[10] = test system: A. baumannii; assay: MIC of bacterial growth (Table 2); assay type: cell-based; conditions: Acinetobacter baumannii; A. baumannii clinical isolate (Table 2)
Method: as §2

[11] = test system: S. boydii; assay: MIC of bacterial growth (Table 2); assay type: cell-based; conditions: Shigella boydii; S. boydii clinical isolate (Table 2)
Method: as §2

[12] = test system: V cholera; assay: MIC of bacterial growth (Table 2); assay type: cell-based; conditions: Vibrio cholerae
Method: as §2

[13] = test system: S. typhimurium; assay: MIC of bacterial growth (Table 2); assay type: cell-based; conditions: Salmonella enterica; S. typhimurium clinical isolate (Table 2)
Method: as §2

[14] = test system: E. tarda; assay: MIC of bacterial growth (Table 2); assay type: cell-based; conditions: Edwardsiella tarda; E. tarda clinical isolate (Table 2)
Method: as §2

[15] = test system: K. pneumoniae; assay: MIC of bacterial growth (Table 2); assay type: cell-based; conditions: Klebsiella pneumoniae; K. pneumoniae clinical isolate (Table 2)
Method: as §2

## OCC(CO)(CO)NCC(O)Cn1c2ccc(Cl)cc2c2cc(Cl)ccc21 (centres unmarked) [DCAP, 2-((3-(3,6-dichloro-9H-carbazol-9-yl)-2-hydroxypropyl)amino)-2-(hydroxymethyl)propane-1,3-diol]
[1]
  Concentration at which cell lysis was observed within minutes after treatment: ≥ 75 µM
[2]; BW25113 vs BW25113 ΔtolC
  Reduction of MIC on deleting tolC in E. coli BW25113: 4 fold
[2]; Escherichia coli, BW25113
  MIC: 20 µM
[3]; BW25113
  MIC: 20 µM
[3]; BW25113, read-out: MIC (ΔtolC E. coli)
  MIC: 20 µM
[4]
  MIC: 160 µM
[5]
  MIC: 80 µM
[6]
  MIC: 160 µM
[7]
  MIC: 80 µM
[8]
  MipZ-YFP localization: caused MipZ-YFP to mislocalize
[9]
  MIC: 200 µM
[10]
  MIC: 200 µM
[11]
  MIC: 100 µM
[12]
  MIC: 100 µM
[13]
  MIC: 50 µM
[14]
  MIC: 200 µM
[15]
  MIC: 100 µM
